Results as given in patent publication US12629375B2, “Compounds with anti-tumor activity against cancer cells bearing HER2 exon 21 insertions” (Board of Regents, The University of Texas System, priority 2019, dated 2026).
Read-outs that look alike come from different tables or passages of the source.

What was measured:
[1] = test system: CW-2 colorectal cell xenograft (HER2 L755S); assay: CW-2 xenograft mouse model; assay type: in vivo, nu/nu nude mice; details: day 21, 30 mg/kg, 5 days/week
Experimental: In vivo xenograft studies: CW-2 cell line xenografts were created by injecting 1×10^6 cells in 50% matrigel into 6 week old female nu/nu nude mice. When tumors reached 350 mm^3 mice were randomized into 4 groups: 20 mg/kg afatinib, 5 mg/kg poziotinib, 30 mg/kg neratinib, or vehicle control (0.5% Methylcellulose, 2% Tween-80 in dH2O). Tumor volumes were measured three times per week. Mice received drug Monday-Friday (5 days per week), but began dosing on Wednesday allowing for a 2 day holiday after the first 3 days of dosing.

[2] = test system: MCF10A HER2 mutant cell lines; assay: MCF10A cell viability, HER2 exon 20 mutant cell lines together (average, selectivity vs HER2 WT, T-DM1 combination); assay type: cell-based, human
Experimental: (§1) Briefly, 2000-3000 cells per well were plated in 384-well plates (Greiner Bio-One) in technical triplicate. Cells were treated with seven different concentrations of tyrosine kinase inhibitors or vehicle alone at a final volume of 40 μL per well. After 3 days, 11μL of Cell Titer Glo was added to each well. Plates were shaken for 15 minutes, and bioluminescence was determined using a FLUOstar OPTIMA multi-mode micro-plate reader (BMG LABTECH). Bioluminescence values were normalized to DMSO treated cells, and normalized values were plotted in GraphPad Prism using non-linear regression fit to normalized data with a variable slope.
Human Cell lines: MCF10A cells were purchased from ATCC and were cultured in DMEM/F12 media supplemented with 1% penicillin/streptomycin, 5% horse serum (sigma), 20 ng/ml EGF, […] hydrocortisone, and 10 μg/ml insulin. […] Two days after transduction, 0.5 μg/ml puromycin (Invitrogen) was added to the RPMI media. […] CW-2 cells were provided by the Riken cell line database under MTA, and were maintained in RPMI containing 10% FBS and 1% penicillin/streptomycin.

p-HER2 = assay: Western blot of p-HER2 in MCF10A HER2 G776delinsVC cells; assay type: cell-based, human; details: 10 nM, 2 hours treatment
Experimental: Western Blotting: For Western blotting, cells were washed in PBS and lysed in RIPPA lysis buffer (ThermoFisher) and protease inhibitor cocktail tablets (Roche). Protein (30-40 μg) was loaded into gels purchased from BioRad. BioRad semi-dry transfer was used and then probed with antibodies against, pHER2, HER2, pPI3K, PI3K, p-AKT, AKT, p-ERK1/2, and ERK1/2 (1:1000; Cell Signaling). Blots were probed with antibodies against vinculin or β-actin (Sigma-Aldrich) as a loading control, and exposed using ECL Western Blotting substrate (Promega).

[3] = test system: Ba/F3 cells stably expressing HER2 mutations (exons 19, 20, 21); assay: Ba/F3 HER2 mutant cell viability (Cell Titer Glo) TKI screen; assay type: cell-based; details: for inhibitory activity for HER2 mutants across all three exons: exons 19, 20, 21; for inhibitory activity for HER2 mutants across all three exons / activity against cells expressing D769 variants / inhibiting cell viability in cells expressing exon 20 mutations: 72 hours; for sensitivity of HER2 mutants to inhibitor: all HER2 mutants, 72 hours drug treatment; for activity against cells expressing D769 variants: HER2 D769 variants; for inhibiting cell viability in cells expressing exon 20 mutations: HER2 exon 20 mutations
Experimental: Briefly, stable Ba/F3 cell lines were generated by retroviral transduction of Ba/F3 cell line for 12 hours. […] Three days after transduction, 2 μg/ml puromycin (Invitrogen) was added to the RPMI media. After 5 days of selection, cells were stained with FITC-HER2 (Biolegend) sorted by FACS. Cell lines were then grown in the absence of IL-3 for two weeks and cell viability was assessed every three days using the Cell Titer Glo assay (Progema).
as §1

[4] = test system: CW-2 large intestine cells harboring HER2 exon 19 mutation L755S; assay: CW-2 cell viability; assay type: cell-based; details: Homo sapiens, CW-2, 72 h, read-out: average IC50
Experimental: as §1, with “Cell Viability Assay and IC50 Estimation: Cell viability was determined using the Cell Titer Glo assay (Promega) as previously described (Robichaux et al., 2018). Briefly,” for “Briefly,”, “slope. IC50 values were calculated by GraphPad Prism at 50% inhibition.” for “slope.”
Human Cell lines: MCF10A cells were purchased from ATCC and were cultured in DMEM/F12 media supplemented with 1% penicillin/streptomycin, 5% horse serum (sigma), 20 ng/ml EGF, […] hydrocortisone, and 10 μg/ml insulin. Stable cell lines were created by retroviral transduction, and retroviruses were generated by transfecting pBabe-Puro based vectors summarized in Table 1 (Addgene and Bioinnovatise) into Phoenix 293T-ampho cells (Orbigen) using Lipofectamine 2000 (Invitrogen). […]

[5] = test system: patients with HER2 mutant cancers; details: cited from earlier work
[6] = test system: patients with HER2 mutant NSCLC; details: cited from earlier work
[7] = test system: HER2 Y772dupYVMA NSCLC PDX; assay: HER2 Y772dupYVMA NSCLC PDX model; assay type: in vivo, NSG mice
Experimental: Y772dupYVMA PDX mice were purchased from Jax Labs (Model #TM01446). Fragments from tumors expressing HER2 Y772dupYVMA were inoculated into 5- to 6-week old female NSG mice (Jax Labs #005557). Mice were measured three times per week, and when tumors reached a volume of 200-300 mm^3 mice were randomized into four treatment groups: vehicle control (0.5% Methylcellulose, 0.05% Tween-80 in dH2O), 2.5 mg/kg poziotinib, 10 mg/kg T-DM1, or combination of 2.5 mg/kg poziotinib and 10 mg/kg T-DM1. Tumor volumes and body weight were measured three times per week. Mice treated with 2.5 mg/kg poziotinib received drug orally Monday-Friday (5 days per week). Mice treated with 10 mg/kg T-DM1 received one intravenous (IV) dose of T-DM1 on the day of randomization. Mice treated with combination poziotinib and T-DM1 received one IV dose of T-DM1 and began 2.5 mg/kg poziotinib five days per week, 3 days after the dose of T-DM1. Mice received a holiday from dosing if the mouse dropped in body weight by greater than 10% or if body weight dropped below 20 grams. Progression free survival was defined as tumor doubling from best response for two consecutive measurements. Complete regression was defined as greater than 95% reduction in tumor burden, and for mice with complete regression, tumor doubling was defined greater than 75 mm^3 for more than two consecutive measurements. Experiments were completed in agreement with Good Animal Practices and with approval from MD Anderson Cancer Center Institutional Animal Care and Use Committee (Houston, TX).

[8] = test system: patients with HER2 mutant NSCLC; details: cited from earlier work; remark: listed apart in the source
[9] = lung cancer patients harboring HER2 exon 20 insertion mutations

CCOc1cc2ncc(C#N)c(Nc3ccc(OCc4ccccn4)c(Cl)c3)c2cc1NC(=O)/C=C/CN(C)C [neratinib]
increased tumor volume compared to vehicle control [1]: 28% | IC50 ([2]; Homo sapiens, MCF-10A, average over MCF10A G776del insVC, Y772dupYVMA, G778dupGSP cells, 72 hours): 150 nM | inhibition of p-HER2 (p-HER2): not | IC50 values in Ba/F3 drug screening ([3]; HER2 L755S, V777L, or L869R mutations): low IC50 values | sensitivity of V842I mutation in the drug screen assays ([3]; HER2 V842I (exon 21)): not sensitive | inhibitory activity for HER2 mutants across all three exons [3]: had inhibitory activity | IC50 [4]: 68.8 nM | objective response rate (ORR) ([5]; SUMMIT pan-cancer study, all HER2 mutations): less than 15% | ORR ([5]; SUMMIT, HER2 kinase domain point mutations): 21.4% | ORR ([5]; SUMMIT, exon 20 insertions): 7.1% | response ([5]; SUMMIT, patients with colorectal cancer): did not respond | response rate [5, 9]: 0% | ORR ([5]; patients with breast cancer, single agent, multiple studies): 12.5%-32% | response rate ([5]; patients with lung cancer, single agent): 0%-4%

CNC(=O)CN1CCC(Oc2cc3c(Nc4cccc(Cl)c4F)ncnc3cc2OC)CC1 [sapatinib]
sensitivity of HER2 mutants to inhibitor [3]: robust resistance

CS(=O)(=O)CCNCc1ccc(-c2ccc3ncnc(Nc4ccc(OCc5cccc(F)c5)c(Cl)c4)c3c2)o1 [lapatinib]
sensitivity of HER2 mutants to inhibitor [3]: robust resistance

C=CC(=O)Nc1cc(Nc2nccc(-c3cn(C)c4ccccc34)n2)c(OC)cc1N(C)CCN(C)C [osimertinib]
activity against cells expressing D769 variants [3]: did demonstrate activity | inhibiting cell viability in cells expressing exon 20 mutations [3]: not effective

Cc1cc(C(=O)Nc2nc3cccc(Cl)c3n2[C@@H]2CCCCN(C(=O)/C=C/CN(C)C)C2)ccn1 [nazartinib]
activity against cells expressing D769 variants [3]: did demonstrate activity | inhibiting cell viability in cells expressing exon 20 mutations [3]: not effective

T-DM1
ORR ([6]; patients harboring exon 20 insertion mutations): 54.5% | partial responses ([6]; patients with exon 19 mutations): did not have partial responses | inhibition of cell viability of MCF10A HER2 mutant cell lines ([2]; agent alone): did not inhibit cell viability | tumor growth after best response ([7]; by day 30): tumor growth resumed in all mice | mice with complete tumor regression ([7]; day 15 (best response), poziotinib 2.5 mg/kg, T-DM1 10 mg/kg single dose): 2/9 | median PFS (mPFS), time to tumor doubling from best response ([7]; poziotinib 2.5 mg/kg 5 days per week, T-DM1 10 mg/kg single IV dose): 27 days

CCOc1cc2ncc(C#N)c(Nc3ccc(OCc4ccccn4)c(Cl)c3)c2cc1NC(=O)/C=C/[C@H]1CCCN1C [pyrotinib]
selectivity index (SI, IC50 value mutant/IC50 value WT) ([2]; MCF10A HER2 mutant vs HER2 WT cell lines): 0.063

COc1cc2ncnc(Nc3ccc(F)c(Cl)c3)c2cc1NC(=O)/C=C/CN1CCCCC1 [dacomitinib]
inhibitory activity for HER2 mutants across all three exons [3]: had inhibitory activity | ORR ([8]; HER2 mutant NSCLC): 11.5% | response rate [8, 9]: 11.5% | responses ([8]; patients bearing HER2 exon 20 insertion p.Y772dupYVMA): no responses
